Results from article PMC12175177 (Frontiers in Pharmacology, 2025).
Where two headings read alike, the source gives them in different places.

Columns and labels:
Type in all cases: cell-based
[1] = tested on: SARS-CoV-2 Delta variant (SEQ203); conditions: for % inhibition Vero E6 Delta MOI 0.0001: 1x
[2] = tested on: SARS-CoV-2 A2.5 variant (M2169)
SARS-CoV-2 A2.5 variant [3] = experiment: microbe, parasite or virus in culture
SARS-CoV-2 Delta variant [4] = tested on: SARS-CoV-2 Delta variant
SARS-CoV-2 A2.5 variant [5] = tested on: SARS-CoV-2 A2.5 variant
SARS-CoV-2 Delta variant [6] = tested on: SARS-CoV-2 Delta variant; remark: listed apart in the source
[7] = Severe acute respiratory syndrome coronavirus 2, Vero C1008, 72 h, read-out: IC50%
[8] = Severe acute respiratory syndrome coronavirus 2, Vero C1008, 72 h, read-out: IC50% in µg/mL
[9] = Severe acute respiratory syndrome coronavirus 2, Vero C1008, read-out: IC50 (Figure 4 curve)
[10] = Severe acute respiratory syndrome coronavirus 2, Vero C1008, read-out: IC90%
[11] = Severe acute respiratory syndrome coronavirus 2, Vero C1008, read-out: IC90% in µg/mL

SMILES | antiviral inhibition at MOI = 0.00001 [1] [%] | less potent against the Delta compared to the A2.5 variant [1] [%] | % inhibition Vero E6 Delta MOI 0.0001 ([1]; at MNCC, […], 48 h) [%] | inhibition of A.2.5 infection in Calu-3 compared to camostat (CAM) ([2]; Calu-3) | IC50 (SARS-CoV-2 A2.5 variant [3]; [7]) [µM] | IC50 (SARS-CoV-2 A2.5 variant [3]; [8]) [µg/mL] | IC50 (SARS-CoV-2 A2.5 variant [3]; [9]) [µM] | IC90 (SARS-CoV-2 A2.5 variant [3]; [10]) [µM] | IC90 (SARS-CoV-2 A2.5 variant [3]; [11]) [µg/mL] | antiviral effect, treatment 1 hour post-infection, Delta (SARS-CoV-2 Delta variant [4]) | effect on viral replication, treatment 1 hour pre-infection, Delta (SARS-CoV-2 Delta variant [4]) | period of most of the inhibitory effect, A2.5 (SARS-CoV-2 A2.5 variant [5]) | less susceptible to CQ than to PQ, A2.5 (SARS-CoV-2 A2.5 variant [5]; Vero-E6, same time interval) | period of most of the inhibitory effect, Delta (SARS-CoV-2 Delta variant [6]) | less susceptible to CQ than to PQ, Delta (SARS-CoV-2 Delta variant [6]; Vero-E6, same time interval) | % inhibition Vero E6 Delta MOI 0.01 ([1]; at MNCC, […], 48 h, mean 2x) [%] | % inhibition Calu-3 A2.5 MOI 0.01 ([2]; at MNCC, […], 48 h, mean 2x) [%] | effect on viral load, time of addition, A2.5 (SARS-CoV-2 A2.5 variant [5]) | effect on viral load, time of addition, Delta (SARS-CoV-2 Delta variant [6])
CCN(CC)CCCC(C)Nc1ccnc2cc(Cl)ccc12 (centres unmarked) [Chloroquine diphosphate (CQ), Chloroquine diphosphate] | ≥ 20 | 20 | 44 | two-fold less | 6.3 | 2 | 6.27 | 56.7 | 18.1 | dose-dependent antiviral effect | did not influence the viral replication | during the adsorption phase | 2–4 orders of magnitude | during the adsorption phase | 2–4 orders of magnitude |  |  |  | 
COc1cc(NC(C)CCCN)c2ncccc2c1 (centres unmarked) [Primaquine Phosphate (PQ), Primaquine Phosphate] |  |  | 2 |  | 15.3 | 5 | 19.3 | 138 | 35.7 | dose-dependent antiviral effect | did not influence the viral replication | ≤ 3 h |  | ≤ 5 h |  | 18 | 10 | substantially lower viral load | substantially lower viral load
